Tests used:
Social Phobia = assay: Treatment of subjects diagnosed with Social Phobia; type: in vivo, human; conditions: subjects aged 18 to 55 years with Social Phobia; about 40 to about 200 mg/day
Specific Phobia = assay: Treatment of subjects diagnosed with Specific Phobia; type: in vivo, human; conditions: subjects aged 18 to 55 years with Specific Phobia; about 40 to about 200 mg/day

## O=C1Cc2cc(CCN3CCN(c4nsc5ccccc45)CC3)c(Cl)cc2N1 [Ziprasidone, 5-(2-(4-(1,2-benzisothiazol-3-yl)piperazinyl)ethyl)chlorooxindole]
Social Phobia
  tolerability / side effects: well tolerated
Specific Phobia
  tolerability / side effects: well tolerated

— patent publication US20050004138A1 (Pfizer Inc, priority 2003, published 2005)
